Our source for the EC50 and IC50 values is ChEMBL document CHEMBL3879915, “Methods of inhibiting PRMT5” (2014).

A short description of assay [1]: Antiproliferative activity against human Z138 cells assessed as inhibition of cell viability after 5 days by Cell-Titer Glo assay. It counts as functional, cell-based. Conditions: Z-138, 120 h.
Assay [2] deals with Protein arginine N-methyltransferase 5 (Homo sapiens, UniProt O14744). As to the kind of experiment: Inhibition of PRMT5 in human Z138 cells assessed as decrease in di-methyl arginine levels after 96 hrs by Western blot method. It counts as cell-based. A general note: A western blot detects proteins with antibodies after separation by electrophoresis.
Sequence of Protein arginine N-methyltransferase 5 (O14744 whole entry, the tested form may be a part): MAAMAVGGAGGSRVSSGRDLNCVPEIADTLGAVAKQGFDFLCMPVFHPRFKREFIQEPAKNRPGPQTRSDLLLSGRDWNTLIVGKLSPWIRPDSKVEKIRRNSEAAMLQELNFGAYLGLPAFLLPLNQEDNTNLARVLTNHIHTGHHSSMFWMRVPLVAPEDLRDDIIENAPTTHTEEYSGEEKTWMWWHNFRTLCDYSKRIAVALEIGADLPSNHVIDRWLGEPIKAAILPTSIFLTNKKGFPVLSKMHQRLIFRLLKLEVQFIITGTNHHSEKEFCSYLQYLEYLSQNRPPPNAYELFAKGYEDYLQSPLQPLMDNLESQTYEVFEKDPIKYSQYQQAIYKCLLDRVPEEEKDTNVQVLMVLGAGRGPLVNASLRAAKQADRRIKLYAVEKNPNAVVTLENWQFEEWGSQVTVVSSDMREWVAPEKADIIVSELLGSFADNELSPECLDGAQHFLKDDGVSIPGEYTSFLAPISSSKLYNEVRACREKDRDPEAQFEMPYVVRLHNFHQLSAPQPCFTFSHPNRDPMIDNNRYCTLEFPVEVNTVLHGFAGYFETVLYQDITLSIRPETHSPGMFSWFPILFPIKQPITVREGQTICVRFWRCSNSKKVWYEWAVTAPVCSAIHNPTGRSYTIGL
Assay [3] has as its target PRMT5/MEP50 complex (Homo sapiens, UniProt O14744). As to the kind of experiment: Inhibition of recombinant human fetal brain FLAG-tagged PRMT5/full length human testis 6His-tagged MEP50 expressed in baculovirus infected insect Sf9 cells using human histone H4 (1 to 15 residues) as substrate preincubated for 30 mins followed by [3H]-SAM addition.

By EC50 is commonly meant the midpoint of the concentration-response curve. By IC50 is commonly meant the concentration at which inhibition is half-maximal.

Sequence of PRMT5/MEP50 complex (O14744 whole entry, the tested form may be a part): as above
Sequence of PRMT5/MEP50 complex (Q9BQA1 whole entry, further chain, the tested form may be a part): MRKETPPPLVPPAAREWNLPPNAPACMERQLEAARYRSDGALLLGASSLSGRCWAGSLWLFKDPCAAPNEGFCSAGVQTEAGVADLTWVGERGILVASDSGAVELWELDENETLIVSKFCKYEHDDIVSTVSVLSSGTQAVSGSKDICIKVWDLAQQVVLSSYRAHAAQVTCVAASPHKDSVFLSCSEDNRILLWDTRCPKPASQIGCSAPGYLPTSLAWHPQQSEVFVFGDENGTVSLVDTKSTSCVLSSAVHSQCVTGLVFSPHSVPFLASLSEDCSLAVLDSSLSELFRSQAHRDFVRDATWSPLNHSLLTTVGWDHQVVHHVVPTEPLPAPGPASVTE

For `O=C(COc1cccc2cccnc12)NCC(O)CN1Cc2ccccc2C1` (stereo not drawn), the EC50 was greater than 20000 nM in assay [1] and 1000 to 10000 nM in assay [2]. Besides, the IC50 in assay [3] lay within 101 to 1000 nM.
